Experimental data reported in patent US20160262390A1, “FIELD APPLICATION OF SUGARS TO INCREASE CROP YIELD” (Minn-Dak Farmers Cooperative, priority 2015, published 2016).

Assays:
sugarbeets [1] = test: Pre-planting sugar application on sugarbeets, Foxhome; type: in vivo, sugarbeet; conditions: for Recoverable Sugar Yield / Recoverable Sugar Yield Increase Compared to Check Average / Sugarbeet Yield: MN; for number of treatments showing yield improvement compared to check average: six rates (25-250 pounds/Acre) per sugar, thirty in all
Procedure: (§1) The field trials were conducted simultaneously in two different planting locations for each of the crops. One location was near the community of Foxhome in Wilkin County, Minnesota (hereafter referred to as “Foxhome”) while the second location was near the community of Hickson in Cass County, North Dakota (hereafter referred to as “Hickson”). The Foxhome and Hickson locations are on opposite sides of the Red River along the border of Minnesota and North Dakota and separated by a distance exceeding 40 miles. Generally, the Foxhome location has heavier clay loam soil conditions while Hickson has sandy loam soil conditions.
(§2) At each of the Foxhome and Hickson locations, a total of thirty two (32) treatments were conducted for each crop (sugarbeets, soybeans, corn, wheat). Each treatment was replicated four times arranged in a Randomized Complete Block (RCB) Design in the same field. Each replication consisted of a plot measuring twenty five (25) feet in length and eleven (11) feet in width. In selecting the particular seed types for evaluation, popular commercial varieties to the region were utilized. For the row crops (sugarbeets, soybeans, corn) each replication included a width of six (6) rows with twenty two (22) inch row spacing and having a row length of twenty five (25) feet. The wheat was planted in accordance with standard commercial practices. To reduce/eliminate any treatment impacts between adjacent plots for the crops, only the four (4) interior rows of each plot were treated and evaluated for row crops, while for wheat, only the interior 7.33 feet of each plot were treated and evaluated. With the exception of the treatment program applied to the individual plots, which will be discussed below, conventional commercial growing practices for each planting location were otherwise followed during the field trials.
(§3) The treatment regimen at each location for each of the tested crops included two (2) untreated treatments (Treatments 31 and 32) in which no sugar was applied and constitute the control elements. […] Six (6) treatments (Treatments 13-18) included the liquid application of high fructose corn syrup (hereafter “HFCS”) at varying rates. Six treatments (Treatments 19-24) included the liquid application of dextrose (hereafter “LIQDEX”) at varying rates. Six (6) treatments (Treatments 25-30) included the application of powdered cellulose (hereafter “POWCEL”) at varying rates. For the sugar applied in a solid form, granulated or powdered, field application was conducted via conventional broadcast spreading. For the sugar applied in a liquid form, a liquid concentrate was mixed and diluted with water in a tank and a conventional sprayer was configured such that the liquid was sprayed so as to have the same sugar equivalent (measured in pounds/per acre) as the sugar in solid form. Regardless of whether the sugar was applied as a solid or liquid, the sugar was applied directly onto the soil before spring tillage, lightly worked into the ground and followed by planting of the crop seed in the treated ground. A summary of application rates for each plot treatments are contained in Table 7 below and were used consistently with each of the crops (sugarbeets, soybeans, corn, wheat).
(§4) To test the impact of pre-planting application rates and sugar source on sugarbeets, identical field trials using Crystal® brand ACH 260 sugarbeet seed were conducted at the Foxhome and Hickson locations. Planting of the sugarbeet seed and harvest of the sugarbeets were conducted on as close to the same dates as practical so as to have essentially the same length growing season.

sugarbeets [2] = test: Pre-planting sugar application on sugarbeets, Hickson; type: in vivo, sugarbeet; conditions: for Recoverable Sugar Yield / Recoverable Sugar Yield Increase Compared to Check Average / Sugarbeet Yield: ND; for number of treatments showing negative yield benefits compared to check average: six rates per sugar
Procedure: as §1
as §2, with “trials. While the individual plots at the same location, Hickson or Foxhome, experienced essentially the same growing conditions throughout the season, there were various differences associated with localized precipitation, general growing conditions, soil classification and the like, which contributed to performance differences between the Hickson and Foxhome locations.” for “trials.”
as §3
as §4, with “season. […]” for “season.”

wheat = test: Pre-planting sugar application on wheat, Foxhome; type: in vivo; conditions: for Yield / Yield Increase Compared to Check Average: MN; for number of treatments showing yield improvement compared to check average: six rates (25-250 pounds/Acre) per sugar, thirty in all
Procedure: as §1
as §2, with “trials. While the individual plots at the same location, Hickson or Foxhome, experienced essentially the same growing conditions throughout the season, there were various differences associated with localized precipitation, general growing conditions, soil classification and the like, which contributed to performance differences between the Hickson and Foxhome locations.” for “trials.”
as §3
To test the impact of pre-planting application rates and sugar source on wheat, identical field trials using Westbred Mayville wheat seed were conducted at the Foxhome and Hickson locations. Planting of the wheat seed and harvest of the wheat were conducted on the same dates so as to have essentially the same growing season. […]

OC[C@H]1O[C@@](CO)(O[C@H]2O[C@H](CO)[C@@H](O)[C@H](O)[C@H]2O)[C@@H](O)[C@@H]1O [GS, sucrose]
Recoverable Sugar Yield (sugarbeets [1]; pre-planting 25 pounds/Acre): 8856 Pounds/Acre | Recoverable Sugar Yield Increase Compared to Check Average (sugarbeets [1]; pre-planting 25 pounds/Acre): 3.25% | Sugarbeet Yield (sugarbeets [1]; pre-planting 25 pounds/Acre): 32.03 Tons/Acre | Recoverable Sugar Yield (sugarbeets [1]; pre-planting 50 pounds/Acre): 8707 Pounds/Acre | Recoverable Sugar Yield Increase Compared to Check Average (sugarbeets [1]; pre-planting 50 pounds/Acre): 1.52% | Sugarbeet Yield (sugarbeets [1]; pre-planting 50 pounds/Acre): 32.27 Tons/Acre | Recoverable Sugar Yield (sugarbeets [1]; pre-planting 100 pounds/Acre): 8100 Pounds/Acre | Recoverable Sugar Yield Increase Compared to Check Average (sugarbeets [1]; pre-planting 100 pounds/Acre): −5.56% | Sugarbeet Yield (sugarbeets [1]; pre-planting 100 pounds/Acre): 30.85 Tons/Acre | Recoverable Sugar Yield (sugarbeets [1]; pre-planting 150 pounds/Acre): 9080 Pounds/Acre | Recoverable Sugar Yield Increase Compared to Check Average (sugarbeets [1]; pre-planting 150 pounds/Acre): 5.86% | Sugarbeet Yield (sugarbeets [1]; pre-planting 150 pounds/Acre): 31.94 Tons/Acre | Recoverable Sugar Yield (sugarbeets [1]; pre-planting 200 pounds/Acre): 8345 Pounds/Acre | Recoverable Sugar Yield Increase Compared to Check Average (sugarbeets [1]; pre-planting 200 pounds/Acre): −2.70% | Sugarbeet Yield (sugarbeets [1]; pre-planting 200 pounds/Acre): 30.69 Tons/Acre | Recoverable Sugar Yield (sugarbeets [1]; pre-planting 250 pounds/Acre): 9002 Pounds/Acre | Recoverable Sugar Yield Increase Compared to Check Average (sugarbeets [1]; pre-planting 250 pounds/Acre): 4.96% | Sugarbeet Yield (sugarbeets [1]; pre-planting 250 pounds/Acre): 31.80 Tons/Acre | number of treatments showing yield improvement compared to check average (sugarbeets [1]): four of the six | Recoverable Sugar Yield (sugarbeets [2]; pre-planting 25 pounds/Acre): 9560 Pounds/Acre | Recoverable Sugar Yield Increase Compared to Check Average (sugarbeets [2]; pre-planting 25 pounds/Acre): −2.54% | Sugarbeet Yield (sugarbeets [2]; pre-planting 25 pounds/Acre): 32.73 Tons/Acre | Recoverable Sugar Yield (sugarbeets [2]; pre-planting 50 pounds/Acre): 10509 Pounds/Acre | Recoverable Sugar Yield Increase Compared to Check Average (sugarbeets [2]; pre-planting 50 pounds/Acre): 7.14% | Sugarbeet Yield (sugarbeets [2]; pre-planting 50 pounds/Acre): 35.37 Tons/Acre | Recoverable Sugar Yield (sugarbeets [2]; pre-planting 100 pounds/Acre): 9360 Pounds/Acre | Recoverable Sugar Yield Increase Compared to Check Average (sugarbeets [2]; pre-planting 100 pounds/Acre): −4.58% | Sugarbeet Yield (sugarbeets [2]; pre-planting 100 pounds/Acre): 31.94 Tons/Acre | Recoverable Sugar Yield (sugarbeets [2]; pre-planting 150 pounds/Acre): 9877 Pounds/Acre | Recoverable Sugar Yield Increase Compared to Check Average (sugarbeets [2]; pre-planting 150 pounds/Acre): 0.69% | Sugarbeet Yield (sugarbeets [2]; pre-planting 150 pounds/Acre): 32.34 Tons/Acre | Recoverable Sugar Yield (sugarbeets [2]; pre-planting 200 pounds/Acre): 9426 Pounds/Acre | Recoverable Sugar Yield Increase Compared to Check Average (sugarbeets [2]; pre-planting 200 pounds/Acre): −3.90% | Sugarbeet Yield (sugarbeets [2]; pre-planting 200 pounds/Acre): 31.37 Tons/Acre | Recoverable Sugar Yield (sugarbeets [2]; pre-planting 250 pounds/Acre): 9587 Pounds/Acre | Recoverable Sugar Yield Increase Compared to Check Average (sugarbeets [2]; pre-planting 250 pounds/Acre): −2.26% | Sugarbeet Yield (sugarbeets [2]; pre-planting 250 pounds/Acre): 30.7 Tons/Acre | number of treatments showing negative yield benefits compared to check average (sugarbeets [2]): four of the six | Yield (wheat; pre-planting 25 pounds/Acre): 73.58 Bushels/Acre | Yield Increase Compared to Check Average (wheat; pre-planting 25 pounds/Acre): 13.55% | Yield (wheat; pre-planting 50 pounds/Acre): 70.01 Bushels/Acre | Yield Increase Compared to Check Average (wheat; pre-planting 50 pounds/Acre): 8.04% | Yield (wheat; pre-planting 100 pounds/Acre): 59.45 Bushels/Acre | Yield Increase Compared to Check Average (wheat; pre-planting 100 pounds/Acre): −8.26% | Yield (wheat; pre-planting 150 pounds/Acre): 66.65 Bushels/Acre | Yield Increase Compared to Check Average (wheat; pre-planting 150 pounds/Acre): 2.85% | Yield (wheat; pre-planting 200 pounds/Acre): 59.64 Bushels/Acre | Yield Increase Compared to Check Average (wheat; pre-planting 200 pounds/Acre): −7.96% | Yield (wheat; pre-planting 250 pounds/Acre): 59.73 Bushels/Acre | Yield Increase Compared to Check Average (wheat; pre-planting 250 pounds/Acre): −7.82% | number of treatments showing yield improvement compared to check average (wheat): three of the six

OC[C@H]1O[C@@](CO)(O[C@H]2O[C@H](CO)[C@@H](O)[C@H](O)[C@H]2O)[C@@H](O)[C@@H]1O [LIQSUC, sucrose]
Recoverable Sugar Yield (sugarbeets [1]; pre-planting 25 pounds/Acre): 8629 Pounds/Acre | Recoverable Sugar Yield Increase Compared to Check Average (sugarbeets [1]; pre-planting 25 pounds/Acre): 0.61% | Sugarbeet Yield (sugarbeets [1]; pre-planting 25 pounds/Acre): 32.17 Tons/Acre | Recoverable Sugar Yield (sugarbeets [1]; pre-planting 50 pounds/Acre): 8627 Pounds/Acre | Recoverable Sugar Yield Increase Compared to Check Average (sugarbeets [1]; pre-planting 50 pounds/Acre): 0.58% | Sugarbeet Yield (sugarbeets [1]; pre-planting 50 pounds/Acre): 31.21 Tons/Acre | Recoverable Sugar Yield (sugarbeets [1]; pre-planting 100 pounds/Acre): 8592 Pounds/Acre | Recoverable Sugar Yield Increase Compared to Check Average (sugarbeets [1]; pre-planting 100 pounds/Acre): 0.17% | Sugarbeet Yield (sugarbeets [1]; pre-planting 100 pounds/Acre): 31.79 Tons/Acre | Recoverable Sugar Yield (sugarbeets [1]; pre-planting 150 pounds/Acre): 8646 Pounds/Acre | Recoverable Sugar Yield Increase Compared to Check Average (sugarbeets [1]; pre-planting 150 pounds/Acre): 0.80% | Sugarbeet Yield (sugarbeets [1]; pre-planting 150 pounds/Acre): 30.26 Tons/Acre | Recoverable Sugar Yield (sugarbeets [1]; pre-planting 200 pounds/Acre): 8473 Pounds/Acre | Recoverable Sugar Yield Increase Compared to Check Average (sugarbeets [1]; pre-planting 200 pounds/Acre): −1.21% | Sugarbeet Yield (sugarbeets [1]; pre-planting 200 pounds/Acre): 30.23 Tons/Acre | Recoverable Sugar Yield (sugarbeets [1]; pre-planting 250 pounds/Acre): 8424 Pounds/Acre | Sugarbeet Yield (sugarbeets [1]; pre-planting 250 pounds/Acre): 31.04 Tons/Acre | number of treatments showing yield improvement compared to check average (sugarbeets [1]): four of the six | Recoverable Sugar Yield (sugarbeets [2]; pre-planting 25 pounds/Acre): 9363 Pounds/Acre | Recoverable Sugar Yield Increase Compared to Check Average (sugarbeets [2]; pre-planting 25 pounds/Acre): −4.55% | Sugarbeet Yield (sugarbeets [2]; pre-planting 25 pounds/Acre): 28.83 Tons/Acre | Recoverable Sugar Yield (sugarbeets [2]; pre-planting 50 pounds/Acre): 10217 Pounds/Acre | Recoverable Sugar Yield Increase Compared to Check Average (sugarbeets [2]; pre-planting 50 pounds/Acre): 4.16% | Sugarbeet Yield (sugarbeets [2]; pre-planting 50 pounds/Acre): 32.05 Tons/Acre | Recoverable Sugar Yield (sugarbeets [2]; pre-planting 100 pounds/Acre): 9216 Pounds/Acre | Recoverable Sugar Yield Increase Compared to Check Average (sugarbeets [2]; pre-planting 100 pounds/Acre): −6.05% | Sugarbeet Yield (sugarbeets [2]; pre-planting 100 pounds/Acre): 28.83 Tons/Acre | Recoverable Sugar Yield (sugarbeets [2]; pre-planting 150 pounds/Acre): 9089 Pounds/Acre | Recoverable Sugar Yield Increase Compared to Check Average (sugarbeets [2]; pre-planting 150 pounds/Acre): −7.34% | Sugarbeet Yield (sugarbeets [2]; pre-planting 150 pounds/Acre): 31.95 Tons/Acre | Recoverable Sugar Yield (sugarbeets [2]; pre-planting 200 pounds/Acre): 9998 Pounds/Acre | Recoverable Sugar Yield Increase Compared to Check Average (sugarbeets [2]; pre-planting 200 pounds/Acre): 1.93% | Sugarbeet Yield (sugarbeets [2]; pre-planting 200 pounds/Acre): 32.35 Tons/Acre | Recoverable Sugar Yield (sugarbeets [2]; pre-planting 250 pounds/Acre): 9627 Pounds/Acre | Recoverable Sugar Yield Increase Compared to Check Average (sugarbeets [2]; pre-planting 250 pounds/Acre): −1.86% | Sugarbeet Yield (sugarbeets [2]; pre-planting 250 pounds/Acre): 32.29 Tons/Acre | number of treatments showing negative yield benefits compared to check average (sugarbeets [2]): four of the six | Yield (wheat; pre-planting 25 pounds/Acre): 57.25 Bushels/Acre | Yield Increase Compared to Check Average (wheat; pre-planting 25 pounds/Acre): −11.65% | Yield (wheat; pre-planting 50 pounds/Acre): 68.06 Bushels/Acre | Yield Increase Compared to Check Average (wheat; pre-planting 50 pounds/Acre): 5.03% | Yield (wheat; pre-planting 100 pounds/Acre): 67.59 Bushels/Acre | Yield Increase Compared to Check Average (wheat; pre-planting 100 pounds/Acre): 4.31% | Yield (wheat; pre-planting 150 pounds/Acre): 65.84 Bushels/Acre | Yield Increase Compared to Check Average (wheat; pre-planting 150 pounds/Acre): 1.60% | Yield (wheat; pre-planting 200 pounds/Acre): 62.49 Bushels/Acre | Yield Increase Compared to Check Average (wheat; pre-planting 200 pounds/Acre): −3.56% | Yield (wheat; pre-planting 250 pounds/Acre): 63.20 Bushels/Acre | Yield Increase Compared to Check Average (wheat; pre-planting 250 pounds/Acre): −2.47% | number of treatments showing yield improvement compared to check average (wheat): three of the six
